Patent US20100261711A1, “SELECTIVE ANTICONVULSANT AGENTS AND THEIR USES” (WiSys Technology Foundation, priority 2009, published 2010)
Where two headings read alike, the source gives them in different places. Marks after values point to notes of the source that are not given here.

Assays:
Format in all cases: in vivo
6 Hz psychomotor seizure = test: Minimal clonic seizure (6 Hz) test; details: Mice IP; for 6 Hz, animals protected/tested: 100 m/k; for ED50: Mus musculus, ip
Procedure, shortened: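 Mice dosed ip with test compound before 6 Hz corneal-type electrical stimulation lasting 3 s. Protection scored as absence of minimal clonic phase and stereotyped automatistic behaviour seen in untreated animals.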

[1] = tested on: minimal muscular or neurological impairment; test: Toxicity (TOX), rotorod procedure, mice
MES-induced seizures [2] = test: Maximal electroshock test (MES), mice
kindled motor seizure = test: Hippocampus kindling screen; details: Rats IP, 50 mg/kg after 1.0 h
Excerpt: The hippocampus kindling screen is a useful adjunct to the traditional MES and scMet tests for identification of a substance potential utility for treating complex partial seizures. […] No toxic effects were observed as indicated by the lack of motor impairment on the rats tested.

[3] = tested on: minimal motor deficit (ataxia, abnormal gait); test: Toxicity (TOX), minimal motor deficit, rats; details: for TOX (Rotorod Test), animals toxic/tested: Rat IP, 100 mg/kg; for Tox, animals toxic/tested: 50 mg/kg
[4] = tested on: Metrazol-induced clonic seizures; test: Subcutaneous Metrazol test (scMet), mice
MES-induced seizures [5] = test: Maximal electroshock test (MES), rats; details: Rat PO; for MES, animals protected/tested: 30 mg/kg
[6] = Mice, 50 mg/kg PO (Mice IP), 0.5 hr
[7] = Mice, 50 mg/kg PO (Mice IP), 4.0 hr

## C#Cc1ccc2c(c1)C(c1ccccn1)=NCc1c(C(=O)OCC)ncn1-2 [Hz166 (106), 8-Acetylenyl-6-pyridin-2-yl-4H-benzo[f]imidazo[1,5-a][1,4]diazepine-3-carboxylic acid ethyl ester]
6 Hz psychomotor seizure; 44 mA, 0.5 hr
  6 Hz, animals protected/tested: 1/4
6 Hz psychomotor seizure; 44 mA, 1.0 hr
  6 Hz, animals protected/tested: 1/4
6 Hz psychomotor seizure; 44 mA, 2.0 hr
  6 Hz, animals protected/tested: 0/4
6 Hz psychomotor seizure; 44 mA, 4 hr
  6 Hz, animals protected/tested: 0/4
6 Hz psychomotor seizure; 44 mA, […]
  6 Hz, animals protected/tested: 4/4
6 Hz psychomotor seizure; 32 mA, read-out: ED50 32 mA (6 Hz test)
  ED50: 25.8 mg/kg
6 Hz psychomotor seizure; 44 mA, read-out: ED50 44 mA (6 Hz test)
  ED50: 115 mg/kg
[1]; Mice IP, 100 mg/kg, 0.5 hr
  TOX (Rotorod Test), animals toxic/tested: 0/8
[1]; Mice IP, 100 mg/kg, 4.0 hr
  TOX (Rotorod Test), animals toxic/tested: 0/4
[1]; Mice IP, rotorod
  TD50 TOX: > 500 mg/kg
[1]; [6]
  TOX (Rotorod Test), animals toxic/tested: 0/4
[1]; [7]
  TOX (Rotorod Test), animals toxic/tested: 0/4
MES-induced seizures [2]; Mice IP, 100 mg/kg, 0.5 hr
  MES, animals protected/tested: 0/3
MES-induced seizures [2]; Mice IP, 100 mg/kg, 4.0 hr
  MES, animals protected/tested: 0/3
MES-induced seizures [2]; [6]
  MES, animals protected/tested: 1/4
MES-induced seizures [2]; [7]
  MES, animals protected/tested: 0/4
MES-induced seizures [2]; Mus musculus, Mice IP
  ED50: > 300 mg/kg
Kindled motor seizure
  Tox, animals toxic/tested: 0/8^a
Kindled motor seizure; pre-drug 47-61
  Afterdischarge Duration, Drug (Low-High): 59- s
[3]; 0.5 hr
  TOX (Rotorod Test), animals toxic/tested: 0/8
[3]; 4.0 hr
  TOX (Rotorod Test), animals toxic/tested: 0/8
[3]; Rat PO, 0.5 h
  Tox, animals toxic/tested: 0/4
[3]; Rat PO, 1.0 h
  Tox, animals toxic/tested: 0/4
[3]; Rat PO, 2.0 h
  Tox, animals toxic/tested: 0/4
[3]; Rat PO, 4.0 h
  Tox, animals toxic/tested: 0/4
[3]; Rat PO, […]
  Tox, animals toxic/tested: 0/4
[3]; Rat PO, abnormal gait
  TD50 TOX: >500 mg/kg
[3]; rats, oral administration, up to 500 mg/kg
  motor impairment / sedative or locomotor effects: No motor impairment
[4]; Mice IP, 100 mg/kg, 0.5 hr
  mice protected against scMet induced seizures: 60%
  scMet, animals protected/tested: 3/5
[4]; Mice IP, 100 mg/kg, 4.0 hr
  scMet, animals protected/tested: 0/1
[4]; [6]
  scMet, animals protected/tested: 4/4
[4]; [7]
  scMet, animals protected/tested: 0/4
[4]; Mus musculus, Mice IP
  ED50: 16.3 mg/kg
MES-induced seizures [5]
  ED50: > 250 mg/kg
MES-induced seizures [5]; 0.5 h
  MES, animals protected/tested: 1/4
MES-induced seizures [5]; 1.0 h
  MES, animals protected/tested: 0/4
MES-induced seizures [5]; 2.0 h
  MES, animals protected/tested: 0/4
MES-induced seizures [5]; 4.0 h
  MES, animals protected/tested: 0/4
MES-induced seizures [5]; […]
  MES, animals protected/tested: 0/4
